The results in this text go back to PMC6219668 (Oncotarget, 2018).

In one data set the test system is MOLM-13. The experiment in a line: cells. The class given is cell-based. Particulars: Homo sapiens; MOLM-13, AML, dominant CDK6; read-out: IC50, mean ± SD.
A further data set deals with NCI-H460. As to the kind of experiment: cells. The class given is cell-based. Particulars: Homo sapiens, NCI-H460, 72 h.
A short description of a further data set: Maximum tolerated dosage. The class given is in vivo. The following applies: mice, once daily.
A further data set has as its system TE-14. The experiment in a line: cells. Particulars: TE-14, 72 h. The class given is cell-based.
The subject of the next data set is NCI-H441. As to the kind of experiment: cells. The class given is cell-based. The following applies: Homo sapiens, NCI-H441, 72 h.
For a further data set, the system named is SK-MEL-28. As to the kind of experiment: cells. The class given is cell-based. Particulars: Homo sapiens, SK-MEL-28, 72 h.
The test system of a further data set is WBCs and ANC. As to the kind of experiment: Blood counts in JeKo-1 rat model. The following applies: all treatment groups compared with vehicle. The class given is in vivo. From the text: To further characterize the pharmacokinetic/pharmacodynamic (PK/PD) relationship and simultaneously compare antitumor effects with white blood cell (WBC) counts in host animals, we used the JeKo-1 xenograft model in nude rats. […]. We observed dose-proportional increases in both drug exposure and target inhibition (Supplementary Table 5). […]. This dose-proportional target inhibition correlated with dose-dependent antitumor efficacy in the same JeKo-1 xenograft model.

Another data set relates to NCI-H3255. As to the kind of experiment: cells. The class given is cell-based. Particulars: Homo sapiens, NCI-H3255, 72 h.
In the next data set the test system is KYSE450. As to the kind of experiment: cells. Particulars: Homo sapiens, KYSE-450; KYSE450, 72 h. The class given is cell-based.
Another data set deals with HBCx-3. The class given is in vivo. Particulars: HBCx-3, Breast, TNBC, Rb present; 125 mg/kg bid × 21.
The subject of another data set is HCOX1290. The class given is in vivo. The following applies: HCOX1290, Colorectal, Rb present; 250 mg/kg qd.
Another data set deals with MELJUSO. As to the kind of experiment: cells. The class given is cell-based. The following applies: Homo sapiens, MEL-JUSO, 72 h.
For the next data set, the system named is HCC-827. As to the kind of experiment: cells. The class given is cell-based. Particulars: Homo sapiens, HCC827; HCC-827, 72 h.
In the next data set the test system is BT-483. As to the kind of experiment: cells. The class given is cell-based. Particulars: Homo sapiens, BT-483, 72 h.
The next data set relates to SK-MEL-5. The experiment in a line: cells. The following applies: Homo sapiens, SK-MEL-5, 72 h. The class given is cell-based.

With `CC(=O)c1c(C)c2cnc(Nc3ccc(N4CCNCC4)cn3)nc2n(C2CCCC2)c1=O` [Palbociclib, reference compound], the IC50 in the data set on MOLM-13 worked out at 47 ± 25 µM.
As for `CN(C)C(=O)c1cc2cnc(Nc3ccc(N4CCNCC4)cn3)nc2n1C1CCCC1` [Ribociclib, 7-cyclopentyl-2-(5-piperazin-1-yl-pyridin-2-ylamino)-7H-pyrrolo[2,3-d]pyrimidine-6-carboxylic acid dimethylamide], the IC50 is 0.62 µM in the data set on NCI-H460; over 10 µM in the data set with TE-14; 4.74 µM in the data set on NCI-H441; over 10 µM in the data set with SK-MEL-28; over 10 µM in the data set with NCI-H3255; over 10 µM in the data set on KYSE450. Besides, the IC50 with MELJUSO was 0.89 µM; in the data set with HCC-827, 6.12 µM; in the data set on BT-483 it was over 10 µM; in the data set with SK-MEL-5, over 10 µM. The maximum tolerated dosage in the data set “Maximum tolerated dosage” is given as 250 mg/kg. Moreover, the absolute neutrophil counts result in the data set with WBCs and ANC is given as “reduced”. Besides, the “total WBC counts” value with WBCs and ANC is recorded as “reduced”. The figures for the T/C with HBCx-3 and with HCOX1290 were 45 and 22, respectively.

What is called IC50 is the concentration that gives 50% inhibition.
